Experimental data taken from patent publication US20190092720A1, “FUNCTIONALIZED BENZAMIDE DERIVATIVES AS ANTIVIRAL AGENTS AGAINST HBV INFECTION” (BARUCH S. BLUMBERG INSTITUTE, priority 2012, published 2019).
pEC50: −log10 of the molar value.

Assays:
[1] = Cytotoxicity in AML12HBV10 cells (MTT assay); assay type: cell-based, murine; conditions: mouse, concentration that reduces viability by 50%, serial dilution 50 μM to 0.39 μM
Experimental: Determination of cytotoxicity of compounds of the disclosure in AML12HBV10 cells: To determine the cytotoxicity of the compounds, AML12HBV10 cells were seeded into 96-well plates at a density of 2×10^4 cells per well and cultured in DMEM/F12 media with 10% fetal bovine serum in the absence of tetracycline to allow pgRNA transcription and HBV DNA replication. One day after seeding, cells were left untreated or treated with a serial dilution of testing compounds, ranging from 50 μM to 0.39 μM, for 48 hours. The cell viability was measured by a MTT assay, following procedure provided by the manufacturer (Promega). The cytotoxicity of a compound was expressed as the concentration of compound that reduces the viability of the cells by 50% (CC50).

[2] = test system: HBV replication in AML12HBV10 cells; test: Antiviral efficacy in AML12HBV10 cells (HBV DNA dot-blot hybridization); assay type: cell-based, Hepatitis B virus (HBV); conditions: Hepatitis B virus, AML12HBV10, 48 h, read-out: AML12HBV10 EC50, concentration that reduces the amount of HBV DNA by 50%, serial dilution 50 μM to 0.39 μM
Experimental: The HBV replication inhibitors of the present invention are capable of treating and preventing diseases associated with HBV infection.
The antiviral efficacy of the compounds of the disclosure, as presented in Table 1, were determined in AML12HBV10 cells. AML12HBV10 is an immortalized murine hepatocyte (AML12)-derived stable cell line that supports robust HBV replication in a tetracycline inducible manner (Xu et al.). The cells were seeded into 96 well plates at a density of 2×10^4 cells per well and cultured in DMEM/F12 media with 10% fetal bovine serum in the absence of tetracycline to allow pgRNA transcription and HBV DNA replication. One day after seeding, cells were left untreated or treated with a serial dilution of testing compounds, ranging from 50 μM to 0.39 μM, for 48 hours. Cells were then lysed by adding into each well of 100 μl lysis buffer containing 10 mM Tris-HCl (pH 7.6), 1 mM EDTA, 100 mM NaCl and 1% NP-40 and incubated at 37° C. for 30 minutes. Half amount (50 μl) of cell lysate from each well was combined with equal volume of denaturing solution containing 0.5N NaOH and 1.5M NaCl. After 5 minute incubation, 100 µl of neutralization solution (1M Tris-HCl, pH 7.4, 1.5M NaCl) was added into each well. The denatured cell lysates (totally 200 μl) were applied onto Nylon membrane using 96-well dot-blot manifold (Biorad). HBV DNA in the cell lysates were determined by dot-blot hybridization with alpha-^32P-UTP-labelled riboprobe specific for HBV minus strand DNA. The antiviral efficacy of a compound of the disclosure was expressed as the concentration that reduces the amount of HBV DNA by 50% (EC50).

[3] = test system: HBV replication in HepDES19 cells; test: Antiviral activity in HepDES19 cells (core-associated HBV DNA, Southern blot); assay type: cell-based, Hepatitis B virus (HBV); conditions: concentration that reduces core-associated HBV DNA by 50%, 6 days, serial dilution 10 μM to 0.018 μM
Description: Determination of antiviral activity of compounds of the disclosure, as presented in Table 1, in human hepatoma-derived cell lines: To further confirm the antiviral activity of the compounds of the disclosure against HBV in human hepatocyte-derived cells, HepDES19 cells, a human hepatoma cell line supporting HBV replication in a tetracycline inducible manner (Guo et al., 2007), seeded into 12-well plates at a density of 5×10^5 cells per well and cultured in DMEM/F12 media with 10% fetal bovine serum and 1 μg/ml tetracycline. Two days after seeding, the cells were mock-treated or treated with a serial dilution of compounds of the disclosure, ranging from 10 μM to 0.018 μM, for 6 days in the absence of tetracycline. Upon the completion of treatment, cells were lysed by adding into each well of the 12-well plates 0.5 ml of lysis buffer containing 10 mM Tris-HCl (pH 8.0), 1 mM EDTA, 1% NP40 and 2% sucrose and incubating at 37° C. for 10 minutes. Cell debris and nuclei were removed by centrifugation and the supernatant was mixed with 130 μl of 35% polyethylene glycol (PEG) 8000 containing 1.5 M NaCl. After 1 hour incubation in ice, viral nucleocapsids were pelleted by centrifugation at 6,000×g for 5 min at 4° C., followed by 1 hour digestion at 37° C. in 400 μl of digestion buffer containing 0.5 mg/ml pronase (Calbiochem), 0.5% SDS, 150 mM NaCl, 25 mM Tris-HCl (pH 8.0) and 10 mM EDTA. The digestion mixture was extracted twice with phenol and DNA was precipitated with ethanol, dissolved in TE buffer (10 mM Tris-HCl, pH 8.0; 0.1 mM EDTA). One half of the DNA sample from each well was resolved by electrophoresis into a 1.5% agarose gel. The gel was then subjected to denaturation in a solution containing 0.5 M NaOH and 1.5 M NaCl, followed by neutralization in a buffer containing 1 M Tris-HCl (pH7.4) and 1.5 M NaCl. DNA was then blotted onto Hybond-XL membrane (GE Health care) in 20×SSC buffer. The amounts of cytoplasmic HBV core-associated HBV DNA were determined by Southern blot hybridization and the antiviral efficacy of a compound was expressed as its concentration that reduce the amount of HBV DNA by 50% (EC50) or 90% (EC90).

[4] = Hepatitis B virus, HepDES19, 144 h

SMILES | CC50 at 48 h [1] [µM] | pEC50 [2] | pEC50 [3, 4] | pEC50 [3]
O=C(Nc1cc(F)ccc1F)c1cccc2c1OCCO2 [Entry 30] | > 10 | 4.83 |  | 
O=C(Nc1ccc(F)cc1)c1cccc2c1OCCO2 [Entry 26] | > 10 | 6.40 |  | 
O=C(Nc1ccc(F)c(Cl)c1)c1cccc2c1OCCO2 [Entry 38] | > 10 | 7.30 |  | 
O=C(Nc1cccc(I)c1)c1ccc2ccccc2c1 [Entry 23] | > 50 | 4.71 |  | 
O=C(Nc1cccc(Cl)c1)c1cccc(F)c1F [Entry 12] | > 50 | 4.52 |  | 
O=C(Nc1cccc(Cl)c1)c1ccccc1 [Entry 8] | > 50 | 4.34 |  | 
O=C(Nc1ccc(F)c(F)c1)c1cccc(Cl)c1Cl [Entry 33] | > 10 | 5.73 |  | 
O=C(Nc1ccc(F)c(F)c1)c1cccc2c1OCCO2 [Entry 31] | > 10 | 6.77 |  | 
O=C(Nc1ccc(F)c(Cl)c1)c1cccc2c1OCCCO2 [Entry 44] | > 25 | 5.96 |  | 
O=C(Nc1cccc(OC(F)(F)F)c1)c1cccc2c1OCCO2 [Entry 27] | > 10 | 4.95 |  | 
O=C(Nc1ccc(Cl)c(F)c1)c1cccc2c1CCCC2 [Entry 45] | > 25 | 5.78 |  | 
O=C(Nc1cccc(Cl)c1)c1c(Cl)cccc1Cl [Entry 16] | > 50 | 4.45 |  | 
O=C(Nc1ccc(F)c(F)c1)c1cccc2c1OCCCO2 [Entry 43] | > 25 | 5.71 |  | 
O=C(Nc1ccc(Cl)c(F)c1)c1cccc2c1OCCO2 [Entry 41] | > 25 | 5.83 |  | 
O=C(Nc1cccc(I)c1)c1scc2c1OCCO2 [Entry 9] | > 50 | 5.55 |  | 
O=C(Nc1cccc(Cl)c1)c1cccc2c1OCCCO2 [Entry 42] | > 25 | 5.56 |  | 
O=C(Nc1ccc(F)c(F)c1)c1cccc2c1CCCC2 [Entry 46] | > 25 | 5.83 |  | 
O=C(Nc1ccc(F)c(F)c1)c1scc2c1OCCO2 [Entry 22] | > 50 | > 6.40 |  | 
O=C(Nc1cccc(F)c1)c1cccc2c1OCCO2 [Entry 25] | > 10 | 6.39 |  | 
O=C(Nc1ccccc1F)c1cccc2c1OCCO2 [Entry 28] | > 10 | 4.97 |  | 
O=C(Nc1cccc(Cl)c1)c1ccccc1Cl [Entry 13] | > 50 | 4.91 |  | 
O=C(Nc1cccc(Cl)c1)c1cccc2ccccc12 [Entry 18] | > 50 | 5.19 | 5.38 | 

SMILES | CC50 at 48 h [1] [µM] | pEC50 [2] | pEC50 [3, 4] | pEC50 [3]
O=C(Nc1ccccc1)c1scc2c1OCCO2 [Entry 7] | > 50 | 5.52 |  | 5.52
O=C(Nc1ccc(F)c(F)c1)c1ccc2ccccc2c1 [Entry 21] | > 50 | 4.62 |  | 
O=C(Nc1ccc(Cl)c(Cl)c1)c1cccc2c1OCCO2 [Entry 35] | > 10 | 6.31 |  | 
O=C(Nc1cccc(Cl)c1)c1c(F)cccc1F [Entry 15] | > 50 | 4.51 |  | 
O=C(Nc1cccc(Cl)c1)c1csc2ccccc12 [Entry 11] | > 50 | 4.52 |  | 
O=C(Nc1ccc(Br)cc1F)c1cccc2c1OCCO2 [Entry 29] | > 10 | 4.97 |  | 
O=C(Nc1cccc(C(F)(F)F)c1)c1scc2c1OCCO2 [Entry 5] | > 50 | 5.07 |  | 
COc1cccc(NC(=O)c2scc3c2CCCC3)c1 [Entry 4] | > 50 | 5.10 |  | 
O=C(Nc1ccc(F)c(F)c1F)c1cccc2c1OCCO2 [Entry 39] | > 10 | 5.52 |  | 
O=C(Nc1cc(Cl)cc(Cl)c1)c1cccc2c1OCCO2 [Entry 20] | > 50 | 5.31 |  | 
O=C(Nc1ccc(F)cc1F)c1cccc(Cl)c1Cl [Entry 34] | > 10 | 4.88 |  | 
O=C(Nc1ccc(F)cc1)c1scc2c1CCCC2 [Entry 3] | > 50 | 4.60 |  | 
O=C(Nc1ccc(O)cc1)c1scc2c1CCCC2 [Entry 1] | > 50 | 4.44 |  | 
O=C(Nc1ccc(F)cc1Cl)c1cccc2c1OCCO2 [Entry 36] | > 10 | 5.13 |  | 
O=C(Nc1c(F)cc(F)cc1F)c1cccc2c1OCCO2 [Entry 40] | > 10 | 4.98 |  | 
O=C(Nc1cccc(Cl)c1)c1ccccc1F [Entry 17] | > 50 | 4.78 |  | 
O=C(Nc1cccc(Cl)c1)c1cccc2c1OCO2 [Entry 24] | > 10 | 5.94 |  | 
O=C(Nc1ccccc1)c1scc2c1CCCC2 [Entry 2] | > 50 | 5.05 |  | 
O=C(Nc1ccc(Cl)cc1F)c1cccc2c1OCCO2 [Entry 37] | > 10 | 5.05 |  | 
O=C(Nc1cccc(Cl)c1)c1cccc(Cl)c1Cl [Entry 14] | > 50 | 5.08 | 4.65 | 
O=C(Nc1ccc(F)cc1F)c1cccc2c1OCCO2 [Entry 32] | > 10 | 5.07 |  | 
